Results taken from US20250034084A1, “COMPOSITIONS AND METHODS FOR PREVENTING OR TREATING MYCOSIS” (AMTIXBIO CO., LTD., priority 2016, published 2025).
Values after ≈ are worked out from the molar mass of the structure shown.

Tests used:
Assay in all cases: Antifungal activity assay (MIC), NCCLS method
Type in all cases: cell-based
Details in all cases: RPMI 1640 medium
[1] = tested on: Cryptococcus neoformans var. grubii H99 (ATCC)
Source text: (§1) In order to measure the minimum inhibitory concentration (MIC), strains Candida albicans SC5314 (ATCC), Candida glabrata BG2 (ATCC), and Cryptococcus neoformans var. grubii […] were used. All the strains used in the test examples of the present invention were purchased from Korean Culture Center of Microorganisms (KCCM) and ATCC, and used. […] As a control group, amphotericin B and fluconazole, which are known to have excellent antifungal inhibitory activity with a problem of human toxicity, were used. Specifically, in order to prepare a medium first, 8.4 g of RPMI-1640 powder (Sigma; […]-1L) was added to 900 ml of distilled water. Next, 34.5 g of MOPS was added thereto, to bring the final concentration to 0.165 M. Then, 100 ml of 20% glucose was added thereto, and then the pH of the resultant was adjusted to 7 using NaOH. Next, after performing filtration with a filter, the filtrate was stored in a refrigeration condition at 4° C. for use in the next experiment. The experimental method and procedure for the MIC assay were as follows: […] (c) in a case of Aspergillus fumigatus, a diluent was prepared at a concentration of 1×10^5 conidia/ml; (d) a 96-well plate was used and 100 μl of the solution was added to each well, so that 2 μl of diluted drug was prepared; (e) 200 μl of the solution was added to a well into which the highest concentration of drug was to be added, and dilution was performed by serial dilution; (f) after performing static culture for 48 hours at 37° C., a degree of growth was measured at OD600 and a comparison was made.

[2] = tested on: Candida albicans SC5314 (ATCC)
Source text: as §1

[3] = tested on: Candida glabrata BG2 (ATCC)
Source text: as §1

Row | Compound | MIC C. neoformans [1] [µg/mL] | MIC C. albicans [2] [µg/mL] | MIC C. glabrata [3] [µg/mL] | MIC C. neoformans ([1]; hydrochloride) [µg/mL]
1 | CCC(C(=O)NCc1ccc(OCc2ccc(C(F)(F)F)cc2)cc1)N(CC)CC (racemic) [Compound 66, (R)/(S)-2-(diethylamino)-N-(4-((4-(trifluoromethyl)benzyl)oxy)benzyl)butanamide] | 4 (≈ 9.47 µM) |  |  | 
2 | CN1CCC(C(=O)NCc2ccc(OCc3ccc(C(F)(F)F)cc3)cc2)C1 (racemic) [Compound 53, (R)/(S)-1-methyl-N-(4-((4-(trifluoromethyl)benzyl)oxy)benzyl)pyrrolidine-3-carboxamide] | 8 (≈ 20.4 µM) | 64 (≈ 163 µM) | 64 (≈ 163 µM) | 
3 | CCC(C(=O)NCc1ccc(OCc2ccc(Cl)c(Cl)c2)cc1)N(C)C (racemic) [Compound 60, (R)/(S)-N-(4-((3,4-dichlorobenzyl)oxy)benzyl)-2-(dimethylamino)butanamide] | 8 (≈ 20.2 µM) |  |  | 
4 | CCC(N)C(=O)NCc1ccc(OCc2ccc(Cl)cc2)cc1.Cl (racemic) [Compound 24, (R)/(S)-1-((4-((4-(chlorobenzyl)oxy)benzyl)amino)-1-oxobutane-2-aminium chloride] | 16 | 64 | 32 | 
5 | CCC(N)C(=O)NCc1ccc(OCc2ccc(F)cc2)cc1.Cl (racemic) [Compound 19, (R)/(S)-1-((4-((4-(fluorobenzyl)oxy)benzyl)amino)-1-oxobutane-2-aminium chloride] | 64 | >128 | >128 | 
6 | CN1CCCC1C(=O)NCc1ccc(OCc2ccc(C(F)(F)F)cc2)cc1 (racemic) [Compound 43, (R)/(S)-1-methyl-N-(4-((4-(trifluoromethyl)benzyl)oxy)benzyl)pyrrolidine-2-carboxamide] | 8 (≈ 20.4 µM) | 32 (≈ 81.5 µM) | 64 (≈ 163 µM) | 
7 | C[C@@H]1[C@H](O)[C@@H](C)/C=C/C=C/C=C/C=C/C=C/C=C/C=C/[C@H](O[C@@H]2O[C@H](C)[C@@H](O)[C@H](N)[C@@H]2O)C[C@@H]2O[C@](O)(C[C@@H](O)C[C@@H](O)[C@H](O)CC[C@@H](O)C[C@@H](O)CC(=O)O[C@H]1C)C[C@H](O)[C@H]2C(=O)O [AmpB, amphotericin B, reference compound] | 0.125 (≈ 0.135 µM) | 0.25 (≈ 0.271 µM) | 0.5 (≈ 0.541 µM) | 
8 | CCC(N)C(=O)NCc1ccc(OCc2ccccc2F)cc1.Cl (racemic) [Compound 17, (R)/(S)-1-((4-((2-(fluorobenzyl)oxy)benzyl)amino)-1-oxobutane-2-aminum chloride] | 64 | >128 | >128 | 
9 | CN1CCC(C(=O)NCc2ccc(OCc3cccc(F)c3)cc2)C1 (racemic) [Compound 52, (R)/(s)-1-methyl-N-(4-((3-fluorobenzyl)oxy)benzyl)pyrrolidine-3-carboxamide] | 8 (≈ 23.4 µM) | 128 (≈ 374 µM) | 128 (≈ 374 µM) | 
10 | CCC(N)C(=O)NCc1ccc(OCc2ccccc2C(F)(F)F)cc1.Cl (racemic) [Compound 20, (R)/(S)-1-oxo-1-((4-((2-(trifluoromethyl)benzyl)oxy)benzyl)amino)butane-2-aminium chloride] | 16 | 64 | 64 | 
11 | CCNC(CC)C(=O)NCc1ccc(OCc2ccc(C(F)(F)F)cc2)cc1 (racemic) [Compound 62, (R)/(S)-2-(ethylamino)-N-(4-((4-trifluoromethyl)benzyl)oxy)benzyl)butanamide] | 8 (≈ 20.3 µM) |  |  | 
12 | CCCC(C(=O)NCc1ccc(OCc2ccc(Cl)c(Cl)c2)cc1)N(CC)CC (racemic) [Compound 69, (R)/(S)-N-(4-((3,4-dichlorobenzyl)oxy)benzyl-2-(diethylamino)pentanamide] | 1 (≈ 2.29 µM) |  |  | 
13 | CCCC(NC)C(=O)NCc1ccc(OCc2ccc(C(F)(F)F)cc2)cc1 (racemic) [Compound 30, (R)/(S)-2-(methylamino)-N-(4-(4-trifluoromethyl)benzyl)oxy)benzyl)pentanamide] | 2 (≈ 5.07 µM) | 8 (≈ 20.3 µM) | 8 (≈ 20.3 µM) | 
14 | CCCC(NCC)C(=O)NCc1ccc(OCc2ccc(Cl)c(Cl)c2)cc1 (racemic) [Compound 65, (R)/(S)-N-(4-((3,4-dichlorobenzyl)oxy)benzyl-2-(ethylamino)pentanamide] | 2 (≈ 4.89 µM) |  |  | 
15 | CCC(C(=O)NCc1ccc(OCc2ccc(Cl)c(Cl)c2)cc1)N(CC)CC (racemic) [Compound 67, (R)/(S)-N-(4-((3,4-dichlorobenzyl)oxy)benzyl-2-(diethylamino)butanamide] | 2 (≈ 4.72 µM) |  |  | 
16 | CN1CCCC1C(=O)NCc1ccc(OCc2ccc(Cl)cc2)cc1 (racemic) [Compound 44, (R)/(s)-1-methyl-N-(4-((4-chlorobenzyl)oxy)benzyl)pyrrolidine-2-carboxamide] | 8 (≈ 22.3 µM) | 32 (≈ 89.2 µM) | 64 (≈ 178 µM) | 
17 | Cl.O=C(NCc1ccc(OCc2cccc(F)c2)cc1)C1CCCN1 (racemic) [Compound 49, (R)/(S)-2-((4-((3-fluorobenzyl)oxy)benzyl)carbamoyl)pyrrolidi-1-nium chloride] | 32 | >128 | >128 | 
18 | CCCC(N)C(=O)NCc1ccc(OCc2cccc(F)c2)cc1.Cl (racemic) [Compound 25, (R)/(S)-1-((4-((3-fluorobenzyl)oxy)benzyl)amino)-1-oxopentane-2-aminium chloride] | 32 | 128 | 64 | 
19 | Cl.O=C(NCc1ccc(OCc2cccc(F)c2)cc1)C1CCCN1 (racemic) [Compound 38, (R)/(S)-N-(4-((3-fluorobenzyl)oxy)benzyl)pyrrolidine-2-carboxamide hydrochloride] |  |  |  | 128
20 | CCCC(C(=O)NCc1ccc(OCc2ccc(C(F)(F)F)cc2)cc1)N(CC)CC (racemic) [Compound 68, (R)/(S)-2-(diethylamino)-N-(4-((4-(trifluoromethyl)benzyl)oxy)benzyl)pentanamide] | 2 (≈ 4.58 µM) |  |  | 
21 | CN1CCCC1C(=O)NCc1ccc(OCc2cccc(F)c2)cc1 (racemic) [Compound 42, (R)/(s)-1-methyl-N-(4-((3-fluorobenzyl)oxy)benzyl)pyrrolidine-2-carboxamide] | 16 (≈ 46.7 µM) | 128 (≈ 374 µM) | 128 (≈ 374 µM) | 
22 | CCC(NC)C(=O)NCc1ccc(OCc2ccc(C(F)(F)F)cc2)cc1 (racemic) [Compound 27, (R)/(S)-2-(methylamino)-N-(4-((4-trifluoromethyl)benzyl)oxy)benzyl)butanamide] | 4 (≈ 10.5 µM) | 16 (≈ 42.1 µM) | 16 (≈ 42.1 µM) | 
23 | Cl.O=C(NCc1ccc(OCc2ccc(F)cc2)cc1)C1CCCN1 (racemic) [Compound 39, (R)/(S)-N-(4-((4-fluorobenzyl)oxy)benzyl)pyrrolidine-2-carboxamide hydrochloride] | 128 | >128 | >128 | 
24 | CN1CCC(C(=O)NCc2ccc(OCc3ccc(Cl)cc3)cc2)C1 (racemic) [Compound 54, (R)/(s)-1-methyl-N-(4-((4-chlorobenzyl)oxy)benzyl)pyrrolidine-3-carboxamide] | 8 (≈ 22.3 µM) | 64 (≈ 178 µM) | 64 (≈ 178 µM) | 
25 | CCC(C(=O)NCc1ccc(OCc2ccc(Cl)c(Cl)c2)cc1)N(C)C (racemic) [Compound 61, (R)/(S)-N-(4-((3,4-dichlorobenzyl)oxy)benzyl)-2-(dimethylamino)butanamide] | 2 (≈ 5.06 µM) |  |  | 
26 | CCNC(CC)C(=O)NCc1ccc(OCc2ccc(Cl)c(Cl)c2)cc1 (racemic) [Compound 63, (R)/(S)-N-(4-((3,4-dichlorobenzyl)oxy)benzyl-2-(ethylamino)butanamide] | 4 (≈ 10.1 µM) |  |  | 
27 | CCC(C(=O)NCc1ccc(OCc2ccc(C(F)(F)F)cc2)cc1)N(C)C (racemic) [Compound 59, (R)/(S)-2-(dimethylamino)-N-(4-((4-trifluoromethyl)benzyl)oxy)benzyl)butanamide] | 8 (≈ 20.3 µM) |  |  | 
28 | CCCC(NCC)C(=O)NCc1ccc(OCc2ccc(C(F)(F)F)cc2)cc1 (racemic) [Compound 64, (R)/(S)-2-(ethylamino)-N-(4-((4-(trifluoromethyl)benzyl)oxy)benzyl)pentanamide] | 4 (≈ 9.79 µM) |  |  | 
29 | CCC(N)C(=O)NCc1ccc(OCc2ccc(Cl)c(Cl)c2)cc1.Cl (racemic) [Compound 57, (R)/(S)-1-((4-(3,4-dichlorobenzyl)oxy)benzyl)amino)-1-oxobutane-2-aminium chloride] | 8 |  |  | 
30 | CCCC(N)C(=O)NCc1ccc(OCc2ccc(Cl)c(Cl)c2)cc1.Cl (racemic) [Compound 58, (R)/(S)-1-((4-((3,4-dichlorobenzyl)oxy)benzyl)amino)-1-oxopentane-2-aminium chloride] | 4 |  |  | 
